According to PMC6114901, “An automated screening method for detecting compounds with goitrogenic activity using transgenic zebrafish embryos” (PLoS ONE, 2018):
Read-outs that look alike come from different tables or passages of the source.

Legend:
[1] = ref chemspider (http://www.chemspider.com); cited from earlier work
[2] = test system: zebrafish embryos; settings: read-out: LC50 (48–120 hpf); mortality; ref Fetter et al. [22]; cited from earlier work
[3] = test system: thyroglobulin (tg:mCherry reporter gene); parameters: method as in PMID 25962731; settings: manual positioning and image analysis; cited from earlier work
[4] = test system: thyroid hormone levels (T4); settings: cited from earlier work; for EC50: read-out: EC50 T4 reduction, reduction of thyroid hormone levels (immunostaining)
[5] = test system: thyroglobulin (tg:mCherry reporter gene); test: animal or person; settings: for EC50: Danio rerio, read-out: EC50 (tg:mCherry induction)
Experimental: In order to avoid interference of test chemicals with early thyroid gland development, zebrafish embryos were cultured in exposure medium until 48 hours post fertilization (hpf). Subsequently, they were exposed to seven known thyroid endocrine disrupters for 3 days (48 to 120 hpf). The non-goitrogenic compound 3,4-dichloroaniline, that is used as reference compound in the zebrafish acute embryo toxicity test was used as negative control. […] No solvents were used. […] Five concentrations and one control were tested per compound and replicate. In the second replicate the range of concentration was adjusted to improve fitting of concentration-response curves. […] Given the lack of appropriate spectral properties stability of exposure concentrations was not analysed for potassium perchlorate. Embryos were kept in the incubator at 26°C and a 14:10 hours light:dark cycle. The exposure was conducted in crystallisation dishes covered with watchmaker glasses with 30 embryos in 30 ml exposure medium (for exposure medium refer to [26]).
Embryos were positioned ventrally toward the microscope objective. Per embryo a bright field image, an autofocus fluorescence image and a Z-stack of 9 images were obtained. The Z-stack was required in case of autofocus failure and manual selection of the focal plane. Fluorescence images were obtained with 400 ms of fluorescent light exposure at maximal light intensity and a gain of 1. […] However, care was taken, that at least 10 images per concentration and replicates were assessed. To avoid a time bias during the analysis the sequence of wells for analysis was arranged in order to obtain a uniform distribution over the entire period of analysis.
The images were analysed using a KNIME workflow (Version 3.3.3., [29]) with the extension “KNIME image processing”. In brief, images were loaded into the workflow and the background was removed automatically using the “rolling ball” procedure of the image J plugin (rolling ball size set to 50 pixels). Subsequently the area containing the thyroid gland was manually selected by drawing a rectangle around the appropriate region using the interactive annotation node. […] If possible the autofocus images were used. In case that the thyroid gland was out of focus due to the presence of autofluorescing pigment cells, an appropriate image from the Z-stack was selected. All subsequent steps were conducted without any user interaction. […] Finally the sum of pixel (reflecting area of the thyroid gland and intensity of fluorescence) was calculated for the labeled area and used as a proxy of fluorescence intensity (see Fig 1 for an overview of the workflow). For each replicate the sum was of pixels was normalized by setting controls to the value of one. For data of individual embryos see S4 Table. The KNIME workflow used for image analysis is provided as supplement file (S1 Workflow).
To characterize the potency of the investigated goitrogenic compounds, we calculated EC50 values of tg:mcherry fluorescence using the pixel sum obtained from image analysis. For each replicate the fluorescence intensity was normalized by dividing the mean fluorescence intensity of each concentration with the mean control fluorescence intensity. Concentration-response curves of tgmcherry fluorescence were fitted to the data using the Hill-slope equation (Eq 1) and used to estimate EC50 values.
The parameter Min was set to 1 and the slope (p) and the maximum fluorescence (Max) were estimated.

[6] = in vivo; settings: zebrafish, in vivo, LC50 (48–120 hpf), mortality, embryos exposed 48–120 hpf
Experimental: (§1) Fish embryo acute toxicity tests were performed similar as described previously, using 10 or 25 embryos per concentration and replicate exposed in crystallization dishes from 48 to 120 hpf. No exchange of exposure media was performed. Lethality was identified by coagulation, missing heartbeat, a non–detached tail and/or missing of somites. Raw data for mortality and phenotypic assessment are provided as S1 Table. Concentration-response curves for mortality are shown in S2 Fig.

[7] = test system: zebrafish embryos; test: in vivo
Experimental: as §1

[8] = 72 hpf, 987.65 µmol/L, replicate 2, 10 embryos
[9] = 72 hpf, 1481.48 µmol/L, replicate 2, 10 embryos
[10] = 72 hpf, 2222.22 µmol/L, replicate 2, 10 embryos
[11] = 72 hpf, 3333.33 µmol/L, replicate 2, 10 embryos
[12] = 72 hpf, 5000.00 µmol/L, replicate 2, 10 embryos
[13] = 96 hpf, 987.65 µmol/L, replicate 2, 10 embryos
[14] = 96 hpf, 1481.48 µmol/L, replicate 2, 10 embryos
[15] = 96 hpf, 2222.22 µmol/L, replicate 2, 10 embryos
[16] = 96 hpf, 3333.33 µmol/L, replicate 2, 10 embryos
[17] = 96 hpf, 5000.00 µmol/L, replicate 2, 10 embryos
[18] = 120 hpf, 937.50 µmol/L, replicate 1, 25 embryos
[19] = 120 hpf, 987.65 µmol/L, replicate 2, 10 embryos
[20] = 120 hpf, 1481.48 µmol/L, replicate 2, 10 embryos
[21] = 120 hpf, 1875.00 µmol/L, replicate 1, 25 embryos
[22] = 120 hpf, 2222.22 µmol/L, replicate 2, 10 embryos
[23] = 120 hpf, 3333.33 µmol/L, replicate 2, 10 embryos
[24] = 120 hpf, 3750.00 µmol/L, replicate 1, 25 embryos
[25] = 120 hpf, 5000.00 µmol/L, replicate 2, 10 embryos
[26] = 120 hpf, 7500.00 µmol/L, replicate 1, 25 embryos
[27] = 120 hpf, 15000.00 µmol/L, replicate 1, 25 embryos

## Cn1cc[nH]c1=S [Methimazole, methimazole]
[1]
  Log D (pH 7.4): -0.11
[2]
  LC50: 28800 µM
[3]
  EC50: 551 µM
[4]; ref Thienpont et al. [13]
  EC50: 290 µM
[4]; zebrafish, in vivo
  TDI (T4): 75
[5]
  EC50: 279 µM
[5]; zebrafish, in vivo
  BMD 20: 186 µM
  Slope: 3.3
  TDI: 103

## Oc1cccc(O)c1 [Resorcinol, resorcinol]
[1]
  Log D (pH 7.4): 0.86
[4]; ref Thienpont et al. [13]
  EC50: 82 µM
[4]; thyroid disruption index based on T4 reduction, ref Thienpont et al. [13]
  TDI (T4): 62
[5]
  EC50: 3.4 µM
[5]; zebrafish, in vivo
  BMD 20: 0.663 µM
  Slope: 0.78
  TDI: 1529
  effect on tg:mCherry fluorescence: weaker induction or repression of fluorescence
[6]
  LC50: 5200 µM
[7]; [8]
  No Surviving: 10
  No hatched: 9
[7]; [9]
  No Surviving: 10
  No hatched: 10
[7]; [10]
  No Surviving: 10
  No hatched: 9
[7]; [11]
  No Surviving: 10
  No hatched: 10
  Total Sublethal: 6
  Ydef (yolk deformation): 6
[7]; [12]
  No Surviving: 10
  No hatched: 10
  Total Sublethal: 8
  Ydef (yolk deformation): 8
[7]; [13]
  No Surviving: 10
  No hatched: 10
[7]; [14]
  No Surviving: 10
  No hatched: 10
  Total Sublethal: 1
  Ydef (yolk deformation): 1
[7]; [15]
  No Surviving: 10
  No hatched: 10
  Total Sublethal: 2
  Ydef (yolk deformation): 2
[7]; [16]
  No Surviving: 10
  No hatched: 10
  Total Sublethal: 5
  Ydef (yolk deformation): 2
  mch (malformation of chorda/scoliosis): 5
[7]; [17]
  No Surviving: 10
  No hatched: 10
  Total Sublethal: 10
  Ydef (yolk deformation): 7
  nobc (no blood circulation): 2
  nomov (no spontaneous movement): 10
[7]; [18]
  No Surviving: 25
  k/f (coagulated): 0
[7]; [19]
  No Surviving: 10
  No hatched: 10
[7]; [20]
  EdY / EdP (heart or yolk sac edema): 1
  No Surviving: 10
  No hatched: 10
  Total Sublethal: 1
  Ydef (yolk deformation): 1
[7]; [21]
  No Surviving: 25
  k/f (coagulated): 0
  nomov (no spontaneous movement): 25
[7]; [22]
  EdY / EdP (heart or yolk sac edema): 1
  No Surviving: 10
  No hatched: 10
  Total Sublethal: 2
  Ydef (yolk deformation): 2
[7]; [23]
  No Surviving: 10
  No hatched: 10
  Total Sublethal: 5
  Ydef (yolk deformation): 5
  mch (malformation of chorda/scoliosis): 4
[7]; [24]
  EdY / EdP (heart or yolk sac edema): 25
  No Surviving: 25
  Total Sublethal: 25
  k/f (coagulated): 0
[7]; [25]
  EdY / EdP (heart or yolk sac edema): 8
  No Surviving: 7
  No hatched: 10
  Total Sublethal: 7
  Ydef (yolk deformation): 8
  mch (malformation of chorda/scoliosis): 3
  nobc (no blood circulation): 10
  nohb (no heartbeat): 3
  nomov (no spontaneous movement): 10
[7]; [26]
  No Surviving: 0
  k/f (coagulated): 25
[7]; [27]
  No Surviving: 0
  k/f (coagulated): 25
[7]; mortality after 72 h of exposure, S2 Fig, unit not given, in µM
  LC10: 4701
[7]; mortality concentration-response curve, 72 h of exposure
  Slope: 21.9
